Source: the OPERA property sets (Mansouri et al. 2018)

Details: not given

SMILES | boiling point | melting point | log10 vapour pressure (mmHg) | log10 Koc (L/kg) | ready biodegradability | log10 Koa | log10 biodegradation half-life (days) | log10 Henry constant (atm·m³/mol)
CC(C)CCCN | 125 °C | -94.4 °C | – | – | – | – | – | –
O=C(O)CCCCCCC[C@H](O)[C@H](O)CCCCCCO | – | 100 °C | – | – | – | – | – | –
Cc1ccc(N(SC(F)(Cl)Cl)S(=O)(=O)N(C)C)cc1 | – | 96 °C | -5.82 | – | – | – | – | –
CC(Cl)C[N+](=O)[O-] (configuration not stated) | 172 °C | – | – | – | – | – | – | –
CC1CCC(C)C(C)C1C (configuration not stated) | – | -75 °C | 0.117 | – | – | – | – | –
CC(Br)(Br)CBr | 190 °C | – | – | – | – | – | – | –
CC1(C)C(=O)Nc2ccccc21 | 300 °C | 154 °C | – | – | – | – | – | –
CC(C)OC(N)=O | 183 °C | 93 °C | – | – | – | – | – | –
O=C1CCCN1 | 245 °C | 23 °C | -2.02 | – | – | – | – | –
CCN(CC)CN(CC)CC | 166 °C | – | – | – | – | – | – | –
C=C[N+](=O)[O-] | 98.5 °C | -55.5 °C | – | – | – | – | – | –
O=C(c1ccccc1)c1cccc([N+](=O)[O-])c1 | – | 95 °C | – | – | – | – | – | –
CCCC1COC(Cn2cncn2)(c2ccc(Cl)cc2Cl)O1 (configuration not stated) | – | – | -6.38 | 3.39 | – | – | – | –
OCCc1ccccn1 | – | -7.8 °C | – | 1.45 | – | – | – | –
O=C(C1CC1)C1CC1 | 161 °C | – | – | – | – | – | – | –
CCCCCOC(=O)c1ccccc1O | 270 °C | – | – | – | – | – | – | –
O=C(O)COc1nn(Cc2ccccc2)c2ccccc12 | – | 160 °C | – | – | – | – | – | –
Cc1cc(O)ccc1O | 272 °C | 128 °C | – | – | – | – | – | –
O=C(O)c1ccc(Br)cc1 | – | 254 °C | -5 | – | – | – | – | –
N#Cc1ccc(N)c2ccccc12 | – | 176 °C | – | – | – | – | – | –
O=C(O)c1c(Cl)cc(Cl)cc1Cl | – | 162 °C | – | – | – | – | – | –
O=[N+]([O-])c1cc(F)ccc1F | 206 °C | -11.7 °C | – | – | – | – | – | –
Cc1ccc2c(c1)CCCC2 | 229 °C | -40 °C | – | – | – | – | – | –
O=c1c(O)c(-c2ccc(O)cc2)oc2cc(O)cc(O)c12 | – | 277 °C | – | – | – | – | – | –
O=C(O)Cc1sc(-c2ccccc2)nc1-c1ccc(Cl)cc1 | – | 162 °C | – | – | – | – | – | –

SMILES | boiling point | melting point | log10 vapour pressure (mmHg) | log10 Koc (L/kg) | ready biodegradability | log10 Koa | log10 biodegradation half-life (days) | log10 Henry constant (atm·m³/mol)
CCC1=CCCC1 | 106 °C | -118 °C | – | – | – | – | – | –
Clc1ccccc1NNc1ccccc1Cl | – | – | – | – | not readily biodegradable | – | – | –
Clc1cc2oc3c(Cl)c(Cl)c(Cl)c(Cl)c3c2c(Cl)c1Cl | – | – | – | – | – | 11.4 | – | –
Cc1nn(-c2cc(NS(C)(=O)=O)c(Cl)cc2Cl)c(=O)n1C(F)F | – | 122 °C | -9.01 | – | – | – | – | –
CC=Cc1ccc(O)c(OC)c1 | 266 °C | 11.8 °C | -1.92 | – | – | – | – | –
COC(=O)c1ccc(C)cc1 | 220 °C | 33.2 °C | – | – | – | – | – | –
Brc1ccc2c(c1)Oc1cc(Br)ccc1O2 | – | 145 °C | -5.89 | – | – | – | – | –
S=c1sccs1 | – | 49 °C | – | – | – | – | – | –
Cc1cccc2c1cc(C)c1cccc(C)c12 | – | – | – | – | – | – | 1.92 | –
NCC1CCC(C(=O)O)CC1 (configuration not stated) | – | – | – | – | not readily biodegradable | – | – | –
NC(=S)NS(=O)(=O)c1ccc(N)cc1 | – | 182 °C | – | – | – | – | – | –
c1cncc(-c2ccnc(-c3cccnc3)c2)c1 | – | 148 °C | – | – | – | – | – | –
Clc1ccc(C(c2ccccc2Cl)C(Cl)Cl)cc1 (configuration not stated) | – | 77 °C | -5.71 | – | – | – | – | –
Cc1cccc(C)c1OCC(C)N (configuration not stated) | – | 204 °C | – | – | – | – | – | –
CCCN(CC)CC1COC2(CCC(C(C)(C)C)CC2)O1 (configuration not stated) | – | – | -3.89 | – | – | – | – | –
N#Cc1ccccc1-c1ccccc1 | – | 41 °C | – | – | – | – | – | –
COc1cc(C)ccc1C | 194 °C | – | – | – | – | – | – | –
Oc1ccc(C2CCCCC2)cc1Cl | – | 40.5 °C | – | – | – | – | – | –
Oc1ccc2c(c1)[nH]c1ccccc12 | – | 272 °C | – | – | – | – | – | –
Nc1cccc2c1C(=O)c1ccccc1C2=O | – | 254 °C | -8.3 | – | not readily biodegradable | – | – | –
FC(F)(F)C(F)(F)C(F)(F)C(F)(F)C(F)(F)I | 94.4 °C | -50 °C | – | – | – | – | – | –
C#C[C@]1(O)CC[C@H]2[C@@H]3CCc4cc(O)ccc4[C@H]3[C@@H](OC)C[C@@]21C | – | 280 °C | – | – | – | – | – | –
O=S(=O)(Cl)C(F)(F)F | 30.5 °C | – | – | – | – | – | – | –
N#Cc1cc(I)c([O-])c(I)c1.[Na+] | – | 360 °C | – | – | – | – | – | –
CC=C(C)C=CC=C(C)C | – | -28 °C | – | – | – | – | – | –

SMILES | boiling point | melting point | log10 vapour pressure (mmHg) | log10 Koc (L/kg) | ready biodegradability | log10 Koa | log10 biodegradation half-life (days) | log10 Henry constant (atm·m³/mol)
O=C1CCC(=O)CC1 | – | 78 °C | – | – | – | – | – | –
CCCCNC(=O)NS(=O)(=O)c1ccc(C)cc1 | – | 128 °C | – | – | – | – | – | –
CC(=O)NC(=O)NC(C)=O | – | 154 °C | – | – | – | – | – | –
O=C(OOC(=O)c1ccccc1)c1ccccc1 | – | 105 °C | – | – | readily biodegradable | – | – | –
C[Si]1(C)O[Si](C)(C)O[Si](C)(C)O[Si](C)(C)O[Si](C)(C)O[Si](C)(C)O[Si](C)(C)O[Si](C)(C)O[Si](C)(C)O1 | – | – | -4.75 | – | – | – | – | –
CCCCCCCCCCCCCCCCC(=O)OC | – | 30 °C | – | – | – | – | – | –
CC1(C)OC[C@@H]2O[C@@]3(C(=O)O)OC(C)(C)O[C@H]3[C@@H]2O1 | – | 74 °C | – | – | – | – | – | –
Cc1ccc(O)c(I)c1 | – | 35 °C | – | – | – | – | – | –
CCCCCCCCCCCCCCOC(=O)CCCCCCCCCCCCC | – | – | – | – | readily biodegradable | – | – | –
Cn1cncc1C[C@H]1COC(=O)[C@@H]1[C@@H](O)c1ccccc1 | – | 179 °C | – | – | – | – | – | –
C#CC=CC=C | 83.5 °C | -81 °C | – | – | – | – | – | –
CC(C)CCC(O)C(C)C (configuration not stated) | 175 °C | – | – | – | – | – | – | –
C[C@H](O)C(F)(F)F | 75.5 °C | – | 1.78 | – | – | – | – | -4.66
O=C(O)C=Cc1ccco1 | – | 143 °C | – | – | – | – | – | –
O=C(c1ccccc1)c1cccc(Br)c1 | – | 81 °C | – | – | – | – | – | –
N#CCCS(=O)(=O)O.[Na+] | – | 244 °C | – | – | – | – | – | –
Cc1cccc(-c2cccc(C)c2)c1 | 280 °C | 9 °C | – | – | – | – | – | –
c1csc(-c2cccs2)c1 | 260 °C | 33 °C | – | – | – | – | – | –
O=C(Cl)c1ccc(C(=O)Cl)cc1 | 258 °C | 83.5 °C | – | – | – | – | – | –
Cc1ccc(-c2ccccc2)cc1 | 268 °C | 49.5 °C | – | – | – | – | 1.58 | –
CC(=O)NC(Cc1ccccc1)C(=O)O (stereo in doubt) | – | 172 °C | – | – | – | – | – | –
CC(C)(N=C=O)c1cccc(C(C)(C)N=C=O)c1 | – | – | -2.49 | – | – | – | – | –
CC(=O)Nc1ccccc1 | 304 °C | 114 °C | -3.7 | 1.43 | readily biodegradable | – | – | –
O=C(NO)c1ccccc1O | – | 168 °C | – | – | – | – | – | –
FC(F)(F)C(F)(F)C(F)(F)F | -36.6 °C | -148 °C | 3.82 | – | – | – | – | –

SMILES | boiling point | melting point | log10 vapour pressure (mmHg) | log10 Koc (L/kg) | ready biodegradability | log10 Koa | log10 biodegradation half-life (days) | log10 Henry constant (atm·m³/mol)
CC(C)C(=O)C(=O)C(C)C | 144 °C | – | – | – | – | – | – | –
CCCCC(C)(O)CC (configuration not stated) | 163 °C | -83 °C | – | – | – | – | – | –
N#Cc1ccccc1C#N | – | 140 °C | – | – | not readily biodegradable | – | – | –
Brc1ccc(Oc2ccccc2)cc1 | 310 °C | 18.7 °C | -2.82 | 4.23 | – | – | – | –
Cc1c(C)c2c3ccccc3ccc2c2ccccc12 | – | 129 °C | – | – | – | – | – | –
CCCCCCOCCO | 208 °C | -45.1 °C | -0.81 | – | – | – | – | –
FC(F)(F)CCl | 6.1 °C | -106 °C | – | – | – | – | – | –
Nc1ccc(Cl)cc1 | 232 °C | 72.5 °C | -1.57 | 1.96 | not readily biodegradable | – | – | –
COC(=O)Nc1nc2cc(C(=O)C3CC3)ccc2[nH]1 | – | 250 °C | – | – | – | – | – | –
CC1=C(C(=O)Nc2ccccc2)SCCO1 | – | 91.5 °C | -6.82 | 2.41 | readily biodegradable | – | – | –
CC1CCCC(=O)C1 (configuration not stated) | 170 °C | – | 0.176 | – | – | – | – | –
O=[N+]([O-])c1ccccc1CO | 270 °C | 74 °C | – | – | – | – | – | –
Cc1cccc(OC(N)=O)c1 | – | – | – | 1.48 | – | – | – | –
CC(=O)CCC(C)C | 144 °C | -74 °C | 0.761 | – | – | – | – | –
CCCCCCCC/C=C\CCCCCCCC(=O)OCC(O)CO (configuration not stated) | – | 35 °C | – | – | readily biodegradable | – | – | –
FC(F)=C(F)C(F)=C(F)F | 6 °C | -132 °C | – | – | – | – | – | –
Oc1ccc(Sc2ccc(O)cc2)cc1 | – | 155 °C | – | – | – | – | – | –
Clc1cc2c(oc3cc(Cl)c(Cl)c(Cl)c32)c(Cl)c1Cl | – | – | – | – | – | 10.8 | – | –
ClC1=C(Cl)[C@]2(Cl)[C@H]3[C@H]([C@@H]4C=C[C@H]3C4)[C@@]1(Cl)C2(Cl)Cl (racemic) | – | – | -3.92 | 4.69 | – | 8.08 | – | -4.36
NC1CC1 | 50.5 °C | -35.4 °C | – | – | – | – | – | –
O=C=NC1CCCCC1 | 172 °C | -80 °C | 0.0086 | – | – | – | – | –
COc1ccc2c(c1)O[C@H]1c3ccc(O)cc3OC[C@@H]21 | – | 128 °C | – | – | – | – | – | –

Same assay, conditions: fish

SMILES | log10 biotransformation half-life (days) | log10 BCF
CCCC1COC(Cn2cncn2)(c2ccc(Cl)cc2Cl)O1 (configuration not stated) | 0.7 | –
Clc1ccccc1NNc1ccccc1Cl | – | 3.66
Clc1ccc(C(c2ccccc2Cl)C(Cl)Cl)cc1 (configuration not stated) | 1.65 | –
Nc1cccc2c1C(=O)c1ccccc1C2=O | -0.59 | 1.98
Clc1ccc(-c2c(Cl)c(Cl)cc(Cl)c2Cl)c(Cl)c1Cl | 2.5 | –
N#Cc1ccccc1C#N | -0.67 | 0.7
Nc1ccc(Cl)cc1 | -0.61 | 0.84
Clc1cc2c(oc3cc(Cl)c(Cl)c(Cl)c32)c(Cl)c1Cl | 1 | 3.94
ClC1=C(Cl)[C@]2(Cl)[C@H]3[C@H]([C@@H]4C=C[C@H]3C4)[C@@]1(Cl)C2(Cl)Cl (racemic) | 1.37 | 3.74
